Assay results published in ChEMBL document CHEMBL5316324, “Discovery, Characterization, and Engineering of LvIC, an α4/4-Conotoxin That Selectively Blocks Rat α6/α3β4 Nicotinic Acetylcholine Receptors” (J Med Chem, 2023).
Activity calls are given as the source filed them. The rule behind the calls is not given here. Peptide text beside a SMILES is read from it.

Legend:
[1] = biological target: T1, Nicotinic acetylcholine receptor alpha6/alpha3/beta4 (Rattus norvegicus) (UniProt P04757+P12392+P43143); experiment: Inhibition of rat alpha6/alpha3beta4 nAChR expressed in Stage V-VI Xenopus laevis Oocytes assessed as acetylcholine-induced current response at 1 uM in presence of 100 uM acetylcholine by electrophysiological recording relative to control; type: cell-based; design: scale not given: the % may be the effect or the level left; conditions: Oocyte
[2] = (§1) Inhibition of rat alpha6/alpha3 E195A mutant beta4 nAChR expressed in Stage V-VI Xenopus laevis Oocytes assessed as inhibition of acetylcholine-induced current in presence of acetylcholine by electrophysiological recording; type: cell-based; conditions: Oocyte
[3] = biological target: Nicotinic acetylcholine receptor alpha6/alpha3/beta2/beta3 (Rattus norvegicus) (UniProt P04757+P12390+P12391+P43143); experiment: Inhibition of rat alpha6/alpha3beta2beta3 nAChR expressed in Stage V-VI Xenopus laevis Oocytes assessed as inhibition of acetylcholine-induced current at 10 uM in presence of acetylcholine by electrophysiological recording; type: cell-based; conditions: Oocyte
[4] = biological target: T2, Neuronal acetylcholine receptor; alpha3/beta4 (Rattus norvegicus) (UniProt P04757+P12392); experiment: Inhibition of rat alpha3beta4 nAChR expressed in Stage V-VI Xenopus laevis Oocytes assessed as inhibition of acetylcholine-induced current at 10 uM in presence of acetylcholine by electrophysiological recording; type: cell-based; conditions: Oocyte
[5] = biological target: Neuronal acetylcholine receptor; alpha2/beta2 (Rattus norvegicus, UniProt P12389+P12390); experiment: Inhibition of rat alpha2/beta2 nAChR expressed in Stage V-VI Xenopus laevis Oocytes assessed as inhibition of acetylcholine-induced current in presence of acetylcholine by electrophysiological recording; type: cell-based, Oocyte
Sequence of Neuronal acetylcholine receptor; alpha2/beta2 (P12389 whole entry): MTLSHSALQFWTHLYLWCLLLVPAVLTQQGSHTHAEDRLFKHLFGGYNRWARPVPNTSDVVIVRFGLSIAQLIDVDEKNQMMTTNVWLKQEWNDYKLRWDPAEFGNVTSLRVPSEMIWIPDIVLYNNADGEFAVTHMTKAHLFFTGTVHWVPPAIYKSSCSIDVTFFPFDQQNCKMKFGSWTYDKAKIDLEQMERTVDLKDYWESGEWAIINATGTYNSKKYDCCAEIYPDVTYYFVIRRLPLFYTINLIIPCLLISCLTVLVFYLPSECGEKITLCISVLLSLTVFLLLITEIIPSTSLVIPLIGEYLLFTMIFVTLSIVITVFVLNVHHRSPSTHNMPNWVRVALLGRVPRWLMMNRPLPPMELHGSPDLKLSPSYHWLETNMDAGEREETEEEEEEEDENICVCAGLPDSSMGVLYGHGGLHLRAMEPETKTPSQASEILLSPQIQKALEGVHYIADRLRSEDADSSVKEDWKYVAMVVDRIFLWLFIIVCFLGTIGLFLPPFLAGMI
Sequence of Neuronal acetylcholine receptor; alpha2/beta2 (P12390 whole entry): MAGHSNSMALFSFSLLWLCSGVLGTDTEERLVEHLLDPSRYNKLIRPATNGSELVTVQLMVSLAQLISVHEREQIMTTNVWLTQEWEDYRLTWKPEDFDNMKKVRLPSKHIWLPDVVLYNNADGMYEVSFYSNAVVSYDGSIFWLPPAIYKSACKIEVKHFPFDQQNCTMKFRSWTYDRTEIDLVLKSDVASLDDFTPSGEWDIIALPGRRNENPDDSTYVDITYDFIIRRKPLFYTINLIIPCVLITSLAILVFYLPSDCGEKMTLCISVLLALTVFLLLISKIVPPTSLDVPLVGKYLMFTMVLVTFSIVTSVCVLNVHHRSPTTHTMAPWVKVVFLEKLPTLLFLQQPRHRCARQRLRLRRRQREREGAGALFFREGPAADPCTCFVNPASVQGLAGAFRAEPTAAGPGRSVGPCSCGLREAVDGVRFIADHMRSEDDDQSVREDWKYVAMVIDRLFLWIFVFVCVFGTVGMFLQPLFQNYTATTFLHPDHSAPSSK

[6] = biological target: Neuronal acetylcholine receptor; alpha3/beta2 (Rattus norvegicus, UniProt P04757+P12390); experiment: Inhibition of rat alpha3/beta2 nAChR expressed in Stage V-VI Xenopus laevis Oocytes assessed as inhibition of acetylcholine-induced current in presence of acetylcholine by electrophysiological recording; type: cell-based, Oocyte
Sequence of Neuronal acetylcholine receptor; alpha3/beta2 (P04757 whole entry): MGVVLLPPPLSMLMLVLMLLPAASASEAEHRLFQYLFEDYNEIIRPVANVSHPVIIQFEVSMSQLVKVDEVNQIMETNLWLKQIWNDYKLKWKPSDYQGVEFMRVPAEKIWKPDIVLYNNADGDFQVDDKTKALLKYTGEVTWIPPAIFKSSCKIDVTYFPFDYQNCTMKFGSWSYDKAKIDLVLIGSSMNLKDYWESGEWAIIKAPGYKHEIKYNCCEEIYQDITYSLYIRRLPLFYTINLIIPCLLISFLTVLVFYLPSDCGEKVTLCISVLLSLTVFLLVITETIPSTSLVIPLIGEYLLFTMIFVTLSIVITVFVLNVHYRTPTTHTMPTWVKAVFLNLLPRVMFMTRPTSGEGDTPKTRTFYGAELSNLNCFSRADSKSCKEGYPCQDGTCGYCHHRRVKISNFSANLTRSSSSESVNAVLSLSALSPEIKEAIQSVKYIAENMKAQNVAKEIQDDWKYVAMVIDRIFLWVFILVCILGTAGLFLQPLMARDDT
Sequence of Neuronal acetylcholine receptor; alpha3/beta2 (P12390 whole entry): as the sequence (P12390 whole entry) above

[7] = biological target: Neuronal acetylcholine receptor subunit alpha-7 (Rattus norvegicus, UniProt Q05941); experiment: Inhibition of rat alpha7 nAChR expressed in Stage V-VI Xenopus laevis Oocytes assessed as inhibition of acetylcholine-induced current in presence of acetylcholine by electrophysiological recording; type: cell-based, Oocyte
Sequence of Neuronal acetylcholine receptor subunit alpha-7 (Q05941 whole entry): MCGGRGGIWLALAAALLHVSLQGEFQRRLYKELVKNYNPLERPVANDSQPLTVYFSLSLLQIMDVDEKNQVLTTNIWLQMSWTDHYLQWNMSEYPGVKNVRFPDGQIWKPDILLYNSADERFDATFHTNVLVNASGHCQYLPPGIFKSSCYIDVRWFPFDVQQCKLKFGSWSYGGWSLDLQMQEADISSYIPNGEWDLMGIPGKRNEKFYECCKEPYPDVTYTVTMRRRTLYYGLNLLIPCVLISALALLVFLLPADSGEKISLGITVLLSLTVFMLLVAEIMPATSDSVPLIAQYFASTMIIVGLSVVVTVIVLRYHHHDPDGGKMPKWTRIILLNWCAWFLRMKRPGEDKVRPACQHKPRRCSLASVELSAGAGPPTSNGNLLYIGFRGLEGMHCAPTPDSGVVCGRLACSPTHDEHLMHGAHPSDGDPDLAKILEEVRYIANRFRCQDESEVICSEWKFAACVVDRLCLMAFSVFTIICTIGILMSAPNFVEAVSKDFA

[8] = biological target: Neuronal acetylcholine receptor; alpha2/beta2 (Rattus norvegicus) (UniProt P12389+P12390); experiment: Inhibition of rat alpha2/beta2 nAChR expressed in Stage V-VI Xenopus laevis Oocytes assessed as inhibition of acetylcholine-induced current at 10 uM in presence of acetylcholine by electrophysiological recording relative to control; type: cell-based; conditions: Oocyte
[9] = biological target: Neuronal acetylcholine receptor; alpha3/beta2 (Rattus norvegicus) (UniProt P04757+P12390); experiment: Inhibition of rat alpha3/beta2 nAChR expressed in Stage V-VI Xenopus laevis Oocytes assessed as inhibition of acetylcholine-induced current at 10 uM in presence of acetylcholine by electrophysiological recording relative to control; type: cell-based; conditions: Oocyte
[10] = biological target: T2, Neuronal acetylcholine receptor; alpha3/beta4 (Rattus norvegicus); experiment: Inhibition of rat alpha3/beta4 nAChR expressed in Stage V-VI Xenopus laevis Oocytes assessed as inhibition of acetylcholine-induced current at 10 uM in presence of acetylcholine by electrophysiological recording relative to control; type: cell-based; conditions: Oocyte
[11] = biological target: Neuronal acetylcholine receptor; alpha4/beta2 (Rattus norvegicus) (UniProt P09483+P12390); experiment: Inhibition of rat alpha4/beta2 nAChR expressed in Stage V-VI Xenopus laevis Oocytes assessed as inhibition of acetylcholine-induced current at 10 uM in presence of acetylcholine by electrophysiological recording relative to control; type: cell-based; conditions: Oocyte
[12] = biological target: Neuronal acetylcholine receptor; alpha4/beta4 (Rattus norvegicus) (UniProt P09483+P12392); experiment: Inhibition of rat alpha4/beta4 nAChR expressed in Stage V-VI Xenopus laevis Oocytes assessed as inhibition of acetylcholine-induced current at 10 uM in presence of acetylcholine by electrophysiological recording relative to control; type: cell-based; conditions: Oocyte
[13] = biological target: Neuronal acetylcholine receptor subunit alpha-7 (Rattus norvegicus) (UniProt Q05941); experiment: Inhibition of rat alpha7 nAChR expressed in Stage V-VI Xenopus laevis Oocytes assessed as inhibition of acetylcholine-induced current at 10 uM in presence of acetylcholine by electrophysiological recording relative to control; type: cell-based; conditions: Oocyte
Sequence of Neuronal acetylcholine receptor subunit alpha-7 (Rattus norvegicus) (Q05941 whole entry): as above

[14] = biological target: Nicotinic acetylcholine receptor alpha1/beta1/epsilon/delta (Mus musculus) (UniProt P04756+P09690+P02716+P20782); experiment: Inhibition of mouse alpha1/beta1deltaepsilon nAChR expressed in Stage V-VI Xenopus laevis Oocytes assessed as inhibition of acetylcholine-induced current at 10 uM in presence of acetylcholine by electrophysiological recording relative to control; type: cell-based; conditions: Oocyte
[15] = tested on: Oocyte; experiment: Inhibition of rat alpha6/alpha3 D152A mutant beta4 nAChR expressed in Stage V-VI Xenopus laevis Oocytes assessed as acetylcholine-induced current response at 1 uM in presence of 100 uM acetylcholine by electrophysiological recording relative to control; type: cell-based; design: scale not given: the % may be the effect or the level left
[16] = biological target: T1, Nicotinic acetylcholine receptor alpha6/alpha3/beta4 (Rattus norvegicus); experiment: Inhibition of rat alpha6/alpha3beta4 nAChR expressed in Stage V-VI Xenopus laevis Oocytes assessed as acetylcholine-induced current response at 100 nM in presence of 100 uM acetylcholine by electrophysiological recording relative to control; type: cell-based; conditions: Oocyte
[17] = tested on: Oocyte; experiment: Inhibition of rat alpha6/alpha3 E195A mutant beta4 nAChR expressed in Stage V-VI Xenopus laevis Oocytes assessed as acetylcholine-induced current response at 100 nM in presence of 100 uM acetylcholine by electrophysiological recording relative to control; type: cell-based
[18] = tested on: Oocyte; experiment: Inhibition of rat alpha6/alpha3beta4 K57T mutant nAChR expressed in Stage V-VI Xenopus laevis Oocytes assessed as acetylcholine-induced current response at 100 uM in presence of 100 uM acetylcholine by electrophysiological recording relative to control; type: cell-based
[19] = tested on: Oocyte; experiment: as §1, with “D152A” for “E195A”, “current by measuring recovery time at 10 uM preincubated with compound for 5 mins followed by washout” for “current”; type: cell-based
[20] = tested on: Oocyte; experiment: Inhibition of rat alpha6/alpha3 E34M mutant beta4 nAChR expressed in Stage V-VI Xenopus laevis Oocytes assessed as inhibition of acetylcholine-induced current by measuring recovery at 10 uM preincubated with compound for 5 mins followed by measured after 20 mins washout by electrophysiological recording; type: cell-based; design: scale not given: the % may be the effect or the level left; conditions: time 25.0 min
[21] = Inhibition of rat alpha6/alpha3beta4 E34M mutant nAChR expressed in Stage V-VI Xenopus laevis Oocytes assessed as inhibition of acetylcholine-induced current in presence of acetylcholine by electrophysiological recording; type: cell-based; conditions: Oocyte
[22] = Inhibition of rat alpha6/alpha3beta4 D161A mutant nAChR expressed in Stage V-VI Xenopus laevis Oocytes assessed as inhibition of acetylcholine-induced current in presence of acetylcholine by electrophysiological recording; type: cell-based; conditions: Oocyte
[23] = organism: Rattus norvegicus; experiment: Selectivity index, ratio of IC50 for rat alpha6/alpha3 E195A mutant beta4 nAChR expressed in Stage V-VI Xenopus laevis oocytes to IC50 for rat alpha6/alpha3beta4 nAChR expressed in Stage V-VI Xenopus laevis Oocytes by electrophysiological recording; type: cell-based
[24] = organism: Rattus norvegicus; experiment: Selectivity index, ratio of IC50 for rat alpha6/alpha3beta4 1166S mutant nAChR expressed in Stage V-VI Xenopus laevis oocytes to IC50 for rat alpha6/alpha3beta4 nAChR expressed in Stage V-VI Xenopus laevis Oocytes by electrophysiological recording; type: cell-based

Structure (SMILES): CC(C)[C@H](NC(=O)[C@@H]1CCCN1C(=O)[C@H](CC(N)=O)NC(=O)[C@H](C)NC(=O)[C@H](CS)NC(=O)[C@H](CS)NC(=O)[C@@H](N)CCCNC(=N)N)C(=O)N[C@@H](CS)C(=O)N[C@@H](CC(N)=O)C(=O)NCC(=O)N[C@@H](CCCCN)C(=O)N[C@@H](Cc1cnc[nH]1)C(=O)N[C@@H](CS)C(N)=O (H-RCCANPVCNGKHC-NH2)
- Activity [1]: 96%
- IC50 [2]: 959 nM
- inhibition [3]: inactive
- inhibition [4]: inactive
- IC50 [5]: > 10000 nM
- IC50 [6]: > 10000 nM
- IC50 [7]: > 10000 nM
- inhibition [8]: < 50%
- inhibition [9]: < 50%
- inhibition [10]: < 50%
- inhibition [11]: < 50%
- inhibition [12]: < 50%
- inhibition [13]: < 50%
- inhibition [14]: < 50%
- Activity [15]: 63.8%
- inhibition [16]: 85.5%
- inhibition [17]: 9.11%
- inhibition [18]: 43.2%
- TIME [19]: 0.0667 h
- Activity [20]: 66.3%
- IC50 [21]: 18.5 nM
- IC50 [22]: 63 nM
- Ratio IC50 [23]: 50.5
- Ratio IC50 [24]: 2.7
